13 compounds from patent US20240025906A1 (NEURON23, INC., priority 2022, published 2024) can be followed below.

One test concerns the target T1, TYK2 JH2 (Homo sapiens, UniProt P29597).
T1 construct: purchased DiscoverX (KINOMEscan KdELECT service); host or cells: E. coli BL21-derived (T7 phage display) or HEK-293
Put plainly: TYK2 JH2 binding assay (KINOMEscan KdELECT competitive binding). Conditions: TYK2 JH2 domain, KINOMEscan KdELECT (Assay A); read-out: Biochemical TYK2_JH2_Kd. In short, it runs like this: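 JH2-domain fragment, expressed as T7 phage tag in BL21-derived E. coli or DNA-tagged from HEK-293, competed with test compound against bead-immobilized biotinylated ligand in binding buffer (0.9% DMSO). 1 h shaking at room temperature; bound kinase eluted with 0.5 μM free ligand and quantified by qPCR. Kd from 11-point 3-fold dilutions.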

Test [1] relates to JAK1/TYK2 pSTAT5 (Tyr694/699) in THP-1 cell line. The experiment in a line: IFNa-stimulated JAK1/TYK2 pSTAT5 (Tyr694/699) inhibition cellular assay, AlphaLISA. It counts as cell-based. Conditions: Homo sapiens; THP-1 cells, IFNa-stimulated, AlphaLISA (Assay B); read-out: Cellular THP1_IFNa-pSTATS_IC50. The gist of the method: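 pSTAT5 (Tyr694/699) in lysates quantified by AlphaLISA (615 nm) after 30 min IFNa stimulation (100 ng/mL stock) of THP-1 cells. The cells, 2e4 per well in HBSS, had first been exposed 1 h at 37° C. to eight 6-fold compound dilutions, 10000 down to 0.04 nM final. IC50 fitted by 4PL regression, bottom 0, Hill slope −1.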

Molecules are shown by their SMILES.

T1 sequence (P29597 589-875 limits assumed): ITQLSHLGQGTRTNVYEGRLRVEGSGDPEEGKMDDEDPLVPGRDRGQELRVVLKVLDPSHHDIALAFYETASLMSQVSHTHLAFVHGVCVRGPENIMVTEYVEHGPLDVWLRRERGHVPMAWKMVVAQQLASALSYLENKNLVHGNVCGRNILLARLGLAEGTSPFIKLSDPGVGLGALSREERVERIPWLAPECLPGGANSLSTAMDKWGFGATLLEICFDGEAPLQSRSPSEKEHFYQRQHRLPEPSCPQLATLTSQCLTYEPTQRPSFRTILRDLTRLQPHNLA

As for `CNc1ncc(-c2ccnn2C2CCCCO2)c2cc(NC(=O)C3CC3)ncc12` (centres unmarked) [Example 51, N-(8-(methylamino)-5-(1-(tetrahydro-2H-pyran-2-yl)-1H-pyrazol-5-yl)-2,7-naphthyridin-3-yl)cyclopropanecarboxamide], on TYK2 JH2, the Kd was 1000 to 10000 nM. In addition, the IC50 in test [1] is more than 500 nM.

Consider `CNc1ncc(-c2ccn[nH]2)c2cc(NC(=O)C3CC3)ncc12` [Example 52, N-(8-(methylamino)-5-(1H-pyrazol-5-yl)-2,7-naphthyridin-3-yl)cyclopropanecarboxamide], for which, on TYK2 JH2, the Kd is not above 100 nM. Besides, the IC50 in test [1] was more than 500 nM.

As to `CNc1ncc(-c2cccc(-c3ncn(C)n3)c2)c2cc(NC(=O)C3CC3)ncc12` [Example 53, N-(5-(3-(1-methyl-1H-1,2,4-triazol-3-yl)phenyl)-8-(methylamino)-2,7-naphthyridin-3-yl)cyclopropanecarboxamide], at TYK2 JH2, the Kd is not above 100 nM. Further, the IC50 in test [1] was more than 500 nM.

Consider `CNc1ncc(-c2cccc(-c3ncnn3C)c2)c2cc(NC(=O)C3CC3)ncc12` [Example 54, N-(5-(3-(1-methyl-1H-1,2,4-triazol-5-yl)phenyl)-8-(methylamino)-2,7-naphthyridin-3-yl)cyclopropanecarboxamide], for which the Kd at TYK2 JH2 was not above 100 nM. The IC50 in test [1] is more than 500 nM.

Consider `CNc1ncc(N2CCCC2)c2cc(NC(=O)C3CC3)ncc12` [Example 55, N-(8-(methylamino)-5-(pyrrolidin-1-yl)-2,7-naphthyridin-3-yl)cyclopropanecarboxamide], for which, at TYK2 JH2, the Kd was not above 100 nM. Moreover, the IC50 in test [1] is more than 500 nM.

Regarding `CNc1ncc(N2CCCCC2)c2cc(NC(=O)C3CC3)ncc12` [Example 56, N-(8-(methylamino)-5-(piperidin-1-yl)-2,7-naphthyridin-3-yl)cyclopropanecarboxamide], the Kd on TYK2 JH2 is not above 100 nM. Also, the IC50 in test [1] is more than 500 nM.

For the compound `CNc1ncc(-n2cccn2)c2cc(NC(=O)C3CC3)ncc12` [Example 57, N-(8-(methylamino)-5-(1H-pyrazol-1-yl)-2,7-naphthyridin-3-yl)cyclopropanecarboxamide], the Kd on TYK2 JH2 was not above 100 nM. Moreover, in test [1], the IC50 is more than 500 nM.

Regarding `CNc1ncc(-c2nccs2)c2cc(NC(=O)C3CC3)ncc12` [Example 63, N-(8-(methylamino)-5-(thiazol-2-yl)-2,7-naphthyridin-3-yl)cyclopropanecarboxamide], the Kd on TYK2 JH2 is not above 100 nM. Besides, the IC50 in test [1] was more than 500 nM.

Turning to `CNc1ncc(-c2ccn(CC(F)(F)F)n2)c2cc(NC(=O)C3CC3)ncc12` [Example 64, N-(8-(methylamino)-5-(1-(2,2,2-trifluoroethyl)-1H-pyrazol-3-yl)-2,7-naphthyridin-3-yl)cyclopropanecarboxamide], the Kd on TYK2 JH2 was not above 100 nM. Also, in test [1], the IC50 is not above 500 nM.

Consider `CNc1ncc(-c2cscn2)c2cc(NC(=O)C3CC3)ncc12` [Example 65, N-(8-(methylamino)-5-(thiazol-4-yl)-2,7-naphthyridin-3-yl)cyclopropanecarboxamide], for which the Kd at TYK2 JH2 is not above 100 nM. For the same compound, the IC50 in test [1] was more than 500 nM.

`CNc1ncc(-c2ncc(C)s2)c2cc(NC(=O)C3CC3)ncc12` [Example 66, N-(8-(methylamino)-5-(5-methylthiazol-2-yl)-2,7-naphthyridin-3-yl)cyclopropanecarboxamide]: on TYK2 JH2, the Kd is not above 100 nM. For the same compound, in test [1], the IC50 is more than 500 nM.

With `CNc1ncc(C2=CCOCC2)c2cc(NC(=O)C3CC3)ncc12` [Example 67, N-(5-(3,6-dihydro-2H-pyran-4-yl)-8-(methylamino)-2,7-naphthyridin-3-yl)cyclopropanecarboxamide], the Kd at TYK2 JH2 was not above 100 nM. Further, the IC50 in test [1] is more than 500 nM.

Turning to `CNc1ncc(C2CCOCC2)c2cc(NC(=O)C3CC3)ncc12` [Example 68, N-(8-(methylamino)-5-(tetrahydro-2H-pyran-4-yl)-2,7-naphthyridin-3-yl)cyclopropanecarboxamide], at TYK2 JH2, the Kd was not above 100 nM. Besides, the IC50 in test [1] was more than 500 nM.
